Key:
[1] = test system: neural stem cells; test: In vitro differentiation assay on adult neural stem cells (beta-III-tubulin promoter firefly/Renilla dual luciferase reporter); assay type: cell-based, rat; details: for Stimulation factor for differentiation of neural stem cells / fold induction at 1 µM: 1 μM final compound concentration, in comparison to sham treatment; for differentiation of neural stem cells to neurons, dose dependence: 0.2 μM up to 25, 50 or 100 μM, compared with sham and 1 μM retinoic acid; for fold induction at 1 µM: Rattus norvegicus, Neural stem cell, read-out: Stimulation factor for differentiation of neural stem cells
Text: The neuroregenerative effect of the compounds according to the present invention can be assayed in vitro by measuring their stimulation of the differentiation of neural stem cells. Therefore, adult neural stem cells have to be isolated and subsequently cultivated in a suitable culture medium. After several passages in vitro the stem cells have to be co-transfected with a DNA construct coding for two discriminable reporter proteins one of them under the control of a constitutive promoter and the other under the control of a beta-III-tubulin promoter. The beta-III-tubulin promoter is induced during the process of neural stem cell differentiation; therefore the reporter protein under the control of this promoter serves as a marker for the stem cell differentiation in such an in vitro dual reporter assay (Schneider et al., J Clin Investigation 2005; 115:2083-2098). The person skilled in the art knows several suitable constitutive promoters such as the SV40-promoter, the TK-promoter, or the CMV-promoter. As discriminable reporter proteins for such a dual reporter assay one can use discriminable luciferases such as firefly luciferase and Renilla luciferase. The transfected cells have to be incubated with the test compound and with a positive and negative controls for normalization and background correction. As a positive control compound one can use retinoic acid (Guan et al., Cell Tissue Res. 2001; 305:171-176; Jacobs et al., Proc. Natl. Acad. Sci. USA 2006; 103:3902-3907), a suitable negative control is the sham treatment of the cells. The neroregenerative activity of the test compound is determined as the ratio of the signal of the beta-III-tubulin promoter controlled reporter versus the signal of the constitutively expressed reporter and is expressed as fold from the control. This assay is suitable to assess the neuroregenerative activity of piperine and derivatives thereof, but also can be used to screen for other potential neuroregenerative compounds. Preferably, such a screening can be used to test compounds which are already known to be suitable as a medicament in terms of its toxicology, bioavailability, solubility, stability etc.
Neural stem cells were isolated from the subventricular zone of 4 week-old male Wistar rats as described (Maurer et al, Proteome Sci. 2003; 1:4). Cells were cultivated in Neurobasal medium (Invitrogen) supplemented with B27 (Invitrogen), 2 mM L-glutamine, 100 units/ml penicillin, 100 units/ml streptomycin, 20 ng/ml […] (EGF), 20 ng/ml fibroblast growth factor-2 (FGF-2), and 2 μg/ml heparin. Once a week the neural stem cells were passaged and experiments were performed after 4 weeks in vitro. For DNA transfection, the cells were dissociated and plated on poly-L-ornithin/laminin-coated 96-well plates at a density of 50.000 cells/well. Cotransfection with the pGL3-p-βIII-tubulin vector (100 ng/well) and the pRL SV40 vector (100 ng/well) was carried out according to the FuGene6 Transfection protocol (Roche). The pRL SV40 vector (Promega) served as an internal control vector.
To amplify the class III β-tubulin gene promoter (fragment −450-+54), rat genomic DNA was used as a template for PCR (Dennis et al., Gene 2002; 294:269-277). The amplified fragment was inserted into the Mlu I/Xho I site of the pGL3-Basic firefly luciferase reporter vector (Promega) to generate the pGL3-p-βIII-tubulin experimental vector.
After overnight incubation, the plate was decanted and given in 8-fold replicates fresh medium containing piperine (Sigma) or vehicle. As a positive control for in vitro differentiation, stem cells were treated by adding 1 μM retinoic acid (Sigma) to the medium missing the mitogens.
After 48 hrs, the cells were harvested to prepare the cellular extracts for luciferase assay following the directions of the manufacturer (Promega). […]

[2] = test system: motoneural cell line NSC-34; test: Anti-apoptosis assay on motoneural cell line, staurosporine induced apoptosis, Caspase-Glo 3/7; assay type: cell-based; details: for degree of apoptosis relative to the staurosporine control: compound 1 μM in the presence of staurosporine 0.1 μM
Experimental: Instead of the SH-SY5Y cells used in Example 3 and 4, this analysis was performed with motoneural cell line NSC-34. […] Incubation with staurosporine (SP; 0.1 μM) alone served as positive control and incubation with vehicle served as negative control. The degree of apoptosis relative to the staurosporine control is shown in FIG. 4 (vehicle (sham): 6%; staurosporine (SP): 100%; piperine plus staurosporine: 70%; derivative B plus staurosporine: 55%; derivative E plus staurosporine: 75%; derivative G plus staurosporine: 76%; derivative K plus staurosporine: 83%; derivative S plus staurosporine: 77%; derivative U plus staurosporine: 71%).

[3] = test system: SH-SY5Y neuronal cells; test: In vitro anti-apoptosis assay, staurosporine induced apoptosis, Caspase-Glo 3/7; assay type: cell-based, human; details: for degree of apoptosis relative to the staurosporine control: compound 1 μM in the presence of staurosporine 0.1 μM
[4] = test system: SH-SY5Y neuronal cells; test: In vitro viability assay, cells stably transfected with constitutive Renilla luciferase; details: 1 μM, 5 h
Text: The viability assay allows for further assessment of test compounds regarding their effect on cells such as neurons. […] Subsequently, the signal generated by the reporter construct serves as a readout for the viability of the cells in the presence of the test compound. The assay enables the evaluation of potential neurotoxic effects of the test compound itself.
The effect of a compound on the viability of neuronal cells can be assayed in vitro by measuring the survival of neuronal cells transfected with a reporter construct under a constitutive promoter. SH-SY5Y neuronal cells stably transfected with a Renilla luciferase construct under the SV40 promoter were seeded in 96-well plates at a density of 2.5×10^4 cells per well. Following overnight incubation the cells were stimulated with medium containing piperine or vehicle. Staurosporine (0.1 μM) served as positive control. The Renilla luciferase activity was measured 5 h later using a luminometer (Berthold Technologies, Mithras LB 940). Piperine was tested in a range from 0.1 nM to 100 μM final concentration.

| Molecule | differentiation of neural stem cells to neurons, dose dependence [1] | fold induction at 1 µM [1] | degree of apoptosis relative to the staurosporine control ([3]; SH-SY5Y) | further results |
| --- | --- | --- | --- | --- |
| 3-(Chloro-3,4-dihydro-2H-benzo[b][1,4]dioxepin-7-yl)N-cyclohexyl-acrylamide | – | – | – | Stimulation factor for differentiation of neural stem cells [1]: 1.7 x-fold |
| NC1(C(=O)/C=C/c2ccc3c(c2)OCO3)CCCCCC1 [1-(3-trans-benzo-1,3-dioxol-5-ylacryloyl)cycloheptylamine] | significantly stimulates | 4 | 49% | degree of apoptosis relative to the staurosporine control [2]: 55% |
| NC1(C(=O)/C=C/c2ccc3c(c2)OCO3)CCCC1 [1-(3-trans-benzo-1,3-dioxol-5-ylacryloyl)cyclopentylamine] | significantly stimulates | 1.4 | 77% | – |
| O=C(/C=C/c1ccc2c(c1)OCO2)N1CCCC1 [1-(3-trans-benzo-1,3-dioxol-5-ylacryloyl)pyrrolidine] | significantly stimulates | 1.3 | 72% | – |
| O=C(C=Cc1ccc2c(c1)OCCCO2)N1CCCCCC1 [1-Azepan-1-yl-3-(3,4-dihydro-2H-benzo[b][1,4]dioxepin-7-yl)-propenone] | significantly stimulates | – | 83% | degree of apoptosis relative to the staurosporine control [2]: 83%; Stimulation factor for differentiation of neural stem cells [1]: 6.1 x-fold; viability of neuronal cells [4]: did not show reduced viability |
| O=C(C=Cc1cc(Cl)c2c(c1)OCCO2)N1CCCCCC1 [1-Azepan-1-yl-3-(8-chloro-2,3-dihydro-benzol[1,4]dioxin-6-yl)-propenone] | – | – | – | Stimulation factor for differentiation of neural stem cells [1]: 1.8 x-fold |
| O=C(C=Cc1cc(Cl)c2c(c1)OCCCO2)N1CCCCCC1 [1-Azepan-1-yl-3-(9-chloro-3,4-dihydro-2H-benzo[b][1,4]dioxepin-7-yl)-propenone] | – | – | – | Stimulation factor for differentiation of neural stem cells [1]: 2.2 x-fold |
| CC1CCN(C(=O)C=Cc2ccc3c(c2)OCO3)CC1 [1-[3-(1,3-benzodioxol-5-yl)acryloyl]-4-methylpiperidine] | significantly stimulates | 1.9 | – | – |
| CCCOc1ccc(C=CC(=O)N2CCCCCC2)cc1 [1-[3-(4-propoxyphenyl)acryloyl]azepane] | – | 2.3 | – | – |
| CCCOc1ccc(C=CC(=O)N2CCCCC2)cc1 [1-[3-(4-propoxyphenyl)acryloyl]piperidine] | significantly stimulates | 4 | 81% | degree of apoptosis relative to the staurosporine control [2]: 77% |
| O=C(C=Cc1ccc2c(c1)OCO2)NCC1CCCO1 (centres unmarked) [3-(1,3-benzodioxol-5-yl)-N-(tetrahydro-2-furanylmethyl)acrylamide] | – | 1.5 | – | – |
| O=C(C=Cc1ccc2c(c1)OCO2)NC1CC2CCC1C2 (centres unmarked) [3-(1,3-benzodioxol-5-yl)-N-bicyclo[2.2.1]hept-2-ylacrylamide] | – | 1.7 | – | – |
| O=C(C=Cc1ccc2c(c1)OCO2)NC1CCCCCCC1 [3-(1,3-benzodioxol-5-yl)-N-cyclooctylacrylamide] | significantly stimulates | 5 | 77% | degree of apoptosis relative to the staurosporine control [2]: 75% |
| CCOc1ccc(C=CC(=O)NC2CCCO2)cc1 (centres unmarked) [3-(4-ethoxyphenyl)-N-(tetrahydro-2-furanyl)acrylamide] | – | 1.5 | – | – |
| O=C(C=Cc1ccc2c(c1)OCO2)NC1=NCCS1 [3-Benzol[1,3]dioxol-5-yl-N-(4,5-dihydro-thiazol-2-yl)-acrylamide] | significantly stimulates | – | 79% | degree of apoptosis relative to the staurosporine control [2]: 76%; Stimulation factor for differentiation of neural stem cells [1]: 4.6 x-fold; viability of neuronal cells [4]: did not show reduced viability |
| CCCOc1ccc(C=CC(=O)NC2CCCCCC2)cc1 [N-cycloheptyl-3-(4-propoxyphenyl)acrylamide] | significantly stimulates | 1.7 | – | – |
| CCOc1ccc(C=CC(=O)NC2CCCCC2)cc1 [N-cyclohexyl-3-(4-ethoxyphenyl)acrylamide] | – | 1.7 | – | – |
| COc1ccc(C=CC(=O)NC2CCCCCCC2)cc1 [N-cyclooctyl-3-(4-methoxyphenyl)acrylamide] | significantly stimulates | 1.9 | – | – |
| CCCOc1ccc(C=CC(=O)NC2CCCC2)cc1 [N-cyclopentyl-3-(4-propoxyphenyl)acrylamide] | significantly stimulates | 1.6 | – | – |
| COc1cccc(NC(=O)/C=C/c2ccc(Cl)cc2)c1 [SB366791, reference compound] | – | – | – | inhibition of the neuroregenerative effect of piperine ([1]; SB366791 10 μM co-incubated with 10 μM piperine): did not result in any inhibition; inhibition of the neuroprotective effect of piperine ([3]; SB366791 10 nM to 100 nM with piperine 10 μM and staurosporine 0.1 μM): did not result in any inhibition |
| COc1cc(CNC(=O)CCCC/C=C/C(C)C)ccc1O [capsaicin, reference compound] | – | – | – | stimulating effect on the differentiation of neural stem cells ([1]; 0.1 nM to 100 μM final concentration): no stimulating effect; anti-apoptotic effect compared to piperine (10 μM) ([3]; capsaicin 10 μM with staurosporine 0.1 μM): only a marginal anti-apoptotic effect |
| CN[C@@H]1C[C@H]2O[C@@](C)([C@@H]1OC)n1c3ccccc3c3c4c(c5c6ccccc6n2c5c31)C(=O)NC4 [staurosporine, reference compound] | – | – | – | degree of apoptosis relative to the staurosporine control (staurosporine alone) ([2]; staurosporine 0.1 μM alone, positive control): 100%; degree of apoptosis relative to the staurosporine control (staurosporine alone) ([3]; staurosporine 0.1 μM alone, positive control, SH-SY5Y): 100% |
